US8288396B2, “Pyrimidopyrimidoindazole derivative” (MSDKK, priority 2009, dated 2012)
Counter-ions that a name gives are not always drawn.

Tests used:
Wee1 kinase = molecular target: T1, Wee1 kinase (Homo sapiens, UniProt P30291); experiment: Wee1 kinase inhibitory effect (Pharmacological Test 1); type: biochemical; conditions: GST-tagged Wee1 kinase, Poly(Lys, Tyr) substrate, 10 μM ATP, 30° C. for 30 minutes
T1 construct: made in house; host or cells: Sf9 insect cells (recombinant baculovirus)
Text: Pharmacological Test 1 (Wee1 Kinase Inhibitory Effect)
(1) Purification of Wee1 Kinase
A cDNA of Wee1 kinase with […] (GST) fused at the amino terminal thereof was inserted into a baculovirus expression vector to construct a recombinant baculovirus, with which cells of an insect cell line Sf9 were infected to overexpress the target protein. The infected cells were collected and lysed, and then the GST-tagged Wee1 kinase protein was adsorbed to a glutathione column and eluted from the column with glutathione, and the active fraction was desalted in a desalting column to give a purified enzyme.
(2) Measurement of Wee1 Kinase Activity
In measurement of the Wee1 kinase activity, a synthetic peptide, Poly(Lys, Tyr) hydrobromide (Lys:Tyr (4:1)) purchased from Sigma was used as the substrate.
The amount of the reaction mixture was 21.1 μL; and the composition of the reaction buffer was 50 mM Tris-HCl buffer (pH 7.4)/10 mM magnesium chloride/1 mM dithiothreitol. The purified Wee1 kinase, 2.5 μg of the substrate peptide, 10 μM of non-labeled adenosine triphosphate (ATP) and 1 μCi of [γ-^33P]-labeled ATP (2500 Ci/mmol or more) were added to the reaction buffer, and the resulting mixture was incubated at 30° C. for 30 minutes. Thereafter, 10 μL of 350 mM phosphate buffer was added to the reaction system to stop the reaction. The substrate peptide was adsorbed on a P81 paper filter 96-well plate and the plate was washed several times with 130 mM phosphate buffer, and the radioactivity thereof was counted using a liquid scintillation counter. The [γ-^33P]-labeled ATP was purchased from Amersham Bioscience, Ltd.
The addition of a test compound to the reaction system was carried out by preparing a series of dilutions of the compound with dimethyl sulfoxide (DMSO) and adding 1.1 μL of each dilution to the reaction system. As a control, 1.1 μL of DMSO was added to the reaction system.

[1] = tested on: Cdc2 (Cdk1) tyrosine-15 phosphorylation; experiment: Inhibitory effect on Cdc2 (Cdk1) tyrosine-15 phosphorylation in NCI-H1299 cells (Pharmacological Test 2); type: cell-based; conditions: Homo sapiens, camptothecin 200 nM 16 hours, then test compound with nocodazole 8 hours, ELISA, read-out: Cdc2-Y15 Phosphorylation-Inhibitory Effect (H1299, +camptothecin) (EC50)
Text: Pharmacological Test 2 (Method for Determining Drug Effect Using Cells (Inhibitory Effect on Cdc2 (Cdk1) Tyrosine-15 Phosphorylation))
Fetal bovine serum (FBS) was purchased from Morgate, Inc.; an RPMI-1640 medium and a DMEM medium were purchased from Invitrogen, Inc.; camptothecin was purchased from Sigma Co.; gemcitabine was purchased from Eli Lilly Japan K.K.; nocodazole and protease inhibitor cocktail were purchased from Sigma Co.; a rabbit anti-Cdc2 antibody and a mouse anti-Cdc2 antibody were purchased from Santa Cruz Biotechnology, Inc.; a rabbit anti-tyrosine-15-phosphorylated Cdc2 antibody and a horseradish peroxidase-labeled anti-mouse IgG antibody were purchased from Cell Signaling Technology, Inc.; and Sure Blue Reserve TMB peroxidase substrate was purchased from Kirkegaard & Perry Laboratories, Inc.
A human non-small cell lung cancer cell line (NCI-H1299) and a human colon cancer cell line (WiDr) can be obtained from American Type Culture Collection (ATCC).
In the method using NCI-H1299 cells, the cells were suspended in an RPMI-1640 medium supplemented with 10% FBS, and 100 μL of the resulting cell suspension was dispensed in a Nunclon Delta treated 96-well plastic plate purchased from Nunc, Inc. at a density of 2000 cells per well, and the plate was incubated overnight at 37° C. under an atmosphere of 5% CO2 and 95% air. Camptothecin was dissolved in dimethyl sulfoxide (DMSO) and further the resulting solution was diluted with an RPMI-1640 medium supplemented with 10% FBS. Then, 50 μL of the diluted solution was added to each well of the plate in which the cells were seeded in advance such that the final concentration of camptothecin was 200 nM, and the plate was incubated at 37° C. under an atmosphere of 5% CO2 and 95% air for 16 hours. A test compound was serially diluted with DMSO, and further diluted with an RPMI-1640 medium supplemented with 10% FBS containing 4000 nM nocodazole. Then, 50 μL of the test compound solution was added to each well of the plate in which the cells treated with camptothecin were seeded, and the plate was incubated at 37° C. under an atmosphere of 5% CO2 and 95% air for 8 hours. Then, the culture medium was removed from each well and 100 μL of a cell lysis buffer was added to each well, and the plate was shaken at 4° C. for 2 hours, and thereafter the liquid in the plate was frozen at −80° C. and then thawed, which was used as a lysed cell solution. Cdc2 and tyrosine-15-phosphorylated Cdc2 in this lysed cell solution were measured by an enzyme-linked immunosorbent assay (ELISA method), and a ratio of tyrosine-15-phosphorylated Cdc2 to Cdc2 was calculated to determine a 50% effective concentration (EC50, nM) of the test compound for inhibition of phosphorylation in cells. The cell lysis buffer as used herein is an aqueous solution containing 20 mM HEPES (pH 7.5), 150 mM sodium chloride, 1 mM disodium ethylenediamine tetraacetate, 0.1% polyoxyethylene (10) octylphenyl ether, 1% protease inhibitor cocktail, 1 mM dithiothreitol, 2 mM sodium orthovanadate, 10 mM sodium fluoride and 10 mM glycerol diphosphate. The measurement of Cdc2 by the ELISA method was carried out as follows. 50 μL of a solution of a rabbit anti-Cdc2 antibody obtained by diluting the antibody to 200 times with 50 mM carbonate-bicarbonate buffer (pH 9.6) was dispensed into each well of a 96-well Maxisorb immunoplate purchased from Nunc, Inc., and the immunoplate was let stand overnight at 4° C. to immobilize the antibody thereto. Subsequently, each well was washed three times with phosphate buffered saline (PBS), and 300 μL of PBS containing 5% bovine serum albumin (5% BSA/PBS) was added to each well, and then, the immunoplate was let stand at room temperature for 2 hours. […]

T1 sequence (P30291 whole entry): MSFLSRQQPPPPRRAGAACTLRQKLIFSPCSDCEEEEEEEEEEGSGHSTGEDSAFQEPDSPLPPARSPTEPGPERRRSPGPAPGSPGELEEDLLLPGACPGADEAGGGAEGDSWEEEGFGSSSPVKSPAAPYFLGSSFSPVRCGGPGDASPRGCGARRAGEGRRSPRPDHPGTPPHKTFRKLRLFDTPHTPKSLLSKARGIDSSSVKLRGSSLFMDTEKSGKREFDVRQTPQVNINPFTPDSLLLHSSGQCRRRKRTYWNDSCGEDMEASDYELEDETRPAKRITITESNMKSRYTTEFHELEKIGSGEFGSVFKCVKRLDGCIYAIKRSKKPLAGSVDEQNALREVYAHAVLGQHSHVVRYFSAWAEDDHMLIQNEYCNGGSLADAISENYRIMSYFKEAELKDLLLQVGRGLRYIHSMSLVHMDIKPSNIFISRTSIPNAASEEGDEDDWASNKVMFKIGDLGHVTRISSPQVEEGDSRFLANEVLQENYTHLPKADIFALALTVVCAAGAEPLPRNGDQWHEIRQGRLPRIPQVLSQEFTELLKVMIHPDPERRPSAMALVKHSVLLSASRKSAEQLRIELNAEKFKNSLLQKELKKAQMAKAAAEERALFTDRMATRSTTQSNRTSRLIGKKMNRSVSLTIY

| SMILES | IC50 (Wee1 kinase) [nM] | EC50 [1] [nM] |
| --- | --- | --- |
| CN1CCN(c2ccc(Nc3ncc4c(=O)n5c(nc4n3)c3ccc(O)cc3n5-c3ccccn3)cc2)CC1 [Example 150, 9-hydroxy-2-{[4-(4-methylpiperazin-1-yl)phenyl]amino}-7-(pyridin-2-yl)pyrimido[4′,5′:4,5]pyrimido[1,2-b]indazol-5(7H)-one trifluoroacetate] | 8.6 | – |
| Cc1cc(Nc2ncc3c(=O)n4c(nc3n2)c2ccccc2n4-c2ccsc2)ccc1N1CCN(C)CC1 [Example 55, 2-{[3-methyl-4-(4-methylpiperazin-1-yl)phenyl]amino}-7-(3-thienyl)pyrimido[4′,5′:4,5]pyrimido[1,2-b]indazol-5(7H)-one] | 13 | – |
| CN1CCN(c2ccc(Nc3ncc4c(=O)n5c(nc4n3)c3ccccc3n5-c3ncccn3)cc2)CC1 [Example 62, 2-{[4-(4-methylpiperazin-1-yl)phenyl]amino}-7-(pyrimidin-2-yl)pyrimido[4′,5′:4,5]pyrimido[1,2-b]indazol-5(7H)-one] | 38 | – |
| CN1CCc2cc(Nc3ncc4c(=O)n5c(nc4n3)c3ccccc3n5-c3ncccn3)ccc2C1(C)C [Example 103, 7-(pyrimidin-2-yl)-2-[(1,1,2-trimethyl-1,2,3,4-tetrahydroisoquinolin-6-yl)amino]pyrimido[4′,5′:4,5]pyrimido[1,2-b]indazol-5(7H)-one] | 6.8 | 31 |
| CN1CCC(C)(c2ccc(Nc3ncc4c(=O)n5c(nc4n3)c3ccccc3n5-c3ncccn3)cc2)CC1 [Example 88, 2-{[4-(1,4-dimethylpiperidin-4-yl)phenyl]amino}-7-(pyrimidin-2-yl)pyrimido[4′,5′:4,5]pyrimido[1,2-b]indazol-5(7H)-one] | 26 | – |
| CN1CCN(c2ccc(Nc3ncc4c(=O)n5c(nc4n3)c3ccccc3n5-c3ccoc3)cc2)CC1 [Example 147, 7-(furan-3-yl)-2-{[4-(4-methylpiperazin-1-yl)phenyl]amino}pyrimido[4′,5′:4,5]pyrimido[1,2-b]indazol-5(7H)-one] | 5.8 | 170 |
| CN1CCc2cc(Nc3ncc4c(=O)n5c(nc4n3)c3ccccc3n5-c3ncccn3)ccc2C1 [Example 100, 2-[(2-methyl-1,2,3,4-tetrahydroisoquinolin-6-yl)amino]-7-(pyrimidin-2-yl)pyrimido[4′,5′:4,5]pyrimido[1,2-b]indazol-5(7H)-one] | 5.1 | 52 |
| CN1Cc2ccc(Nc3ncc4c(=O)n5c(nc4n3)c3ccccc3n5-c3ncccn3)cc2C1 [Example 102, 2-[(2-methyl-2,3-dihydro-1H-isoindol-5-yl)amino]-7-(pyrimidin-2-yl)pyrimido[4′,5′:4,5]pyrimido[1,2-b]indazol-5(7H)-one] | 19 | – |
| CN(C)Cc1ccc(Nc2ncc3c(=O)n4c(nc3n2)c2ccccc2n4-c2ncccn2)cc1 [Example 91, 2-({-4-[(dimethylamino)methyl]phenyl}amino)-7-(pyrimidin-2-yl)pyrimido[4′,5′:4,5]pyrimido[1,2-b]indazol-5(7H)-one] | 34 | – |
| CN1CCc2ccc(Nc3ncc4c(=O)n5c(nc4n3)c3ccccc3n5-c3ccccn3)cc2C1 [Example 44, 2-[(2-methyl-1,2,3,4-tetrahydroisoquinolin-7-yl)amino]-7-(pyridin-2-yl)pyrimido[4′,5′:4,5]pyrimido[1,2-b]indazol-5(7H)-one] | 3.9 | 38 |
| CN1CCN(c2ccc(Nc3ncc4c(=O)n5c(nc4n3)c3ccccc3n5-c3cscn3)cc2)CC1 [Example 146, 2-{[4-(4-methylpiperazin-1-yl)phenyl]amino}-7-(1,3-thiazol-4-yl)pyrimido[4′,5′:4,5]pyrimido[1,2-b]indazol-5(7H)-one] | 13 | – |
| CN1CCc2cc(Nc3ncc4c(=O)n5c(nc4n3)c3ccccc3n5-c3ccccn3)ccc2C1 [Example 43, 2-[(2-methyl-1,2,3,4-tetrahydroisoquinolin-6-yl)amino]-7-(pyridin-2-yl)pyrimido[4′,5′:4,5]pyrimido[1,2-b]indazol-5(7H)-one] | 4.9 | 31 |
| CN1CCN(c2ccc(Nc3ncc4c(=O)n5c(nc4n3)c3ccccc3n5-c3ccccn3)cc2)CC1 [Example 23, 2-{[4-(4-methylpiperazin-1-yl)phenyl]amino}-7-(pyridin-2-yl)pyrimido[4′,5′:4,5]pyrimido[1,2-b]indazol-5(7H)-one] | 30 | – |

The remaining lines, values ahead:

| IC50 (Wee1 kinase) [nM] | EC50 [1] [nM] | SMILES |
| --- | --- | --- |
| 12 | 130 | Cc1cc(Nc2ncc3c(=O)n4c(nc3n2)c2ccccc2n4-c2ncccn2)ccc1N1CCN(C)CC1 [Example 61, 2-{[3-methyl-4-(4-methylpiperazin-1-yl)phenyl]amino}-7-(pyrimidin-2-yl)pyrimido[4′,5′:4,5]pyrimido[1,2-b]indazol-5(7H)-one] |
| 46 | – | CN(C)CCc1ccc(Nc2ncc3c(=O)n4c(nc3n2)c2ccccc2n4-c2ncccn2)cc1 [Example 92, 2-({4-[2-(dimethylamino)ethyl]phenyl}amino)-7-(pyrimidin-2-yl)pyrimido[4′,5′:4,5]pyrimido[1,2-b]indazol-5(7H)-one] |
| 15 | 190 | CN(C)CCN1CCOc2cc(Nc3ncc4c(=O)n5c(nc4n3)c3ccccc3n5-c3nccs3)ccc21 [Example 143, 2-({4-[2-(dimethylamino)ethyl]-3,4-dihydro-2H-1,4-benzoxazin-7-yl}amino)-7-(1,3-thiazol-2-yl)pyrimido[4′,5′:4,5]pyrimido[1,2-b]indazol-5(7H)-one] |
| 6.1 | 17 | CN1CCc2ccc(Nc3ncc4c(=O)n5c(nc4n3)c3ccccc3n5-c3nccs3)cc2C1 [Example 137, 2-[(2-methyl-1,2,3,4-tetrahydroisoquinolin-7-yl)amino]-7-(1,3-thiazol-2-yl)pyrimido[4′,5′:4,5]pyrimido[1,2-b]indazol-5(7H)-one] |
| 32 | 111 | Cc1cc(Nc2ncc3c(=O)n4c(nc3n2)c2ccccc2n4-c2ccccn2)ccc1N1CCN(C)CC1 [Example 21, 2-{[3-methyl-4-(4-methylpiperazin-1-yl)phenyl]amino}-7-(pyridin-2-yl)pyrimido[4′,5′:4,5]pyrimido[1,2-b]indazol-5(7H)-one] |
| 23 | – | CN(C)CCCOc1ccc(Nc2ncc3c(=O)n4c(nc3n2)c2ccccc2n4-c2nccs2)cc1 [Example 121, 2-({4-[3-(dimethylamino)propoxy]phenyl}amino)-7-(1,3-thiazol-2-yl)pyrimido[4′,5′:4,5]pyrimido[1,2-b]indazol-5(7H)-one] |
